According to patent US8921373B2, “Compounds having TRPV1 antagonistic activity and uses thereof” (Shionogi & Co., Ltd., priority 2010, dated 2014):
pIC50: −log10 of the molar value.

What was measured:
[1] = system: FCA-induced inflammation of the rat hind paw; assay: Freund's complete adjuvant (FCA) model of inflammatory pain, reversal of hyperalgesia; format: in vivo; settings: rats
Procedure: Test Animals: Each experiment uses rats weighing between 200-260 g at the start of the experiment. The rats are group-housed and have free access to food and water at all times, except prior to oral administration of a compound of Formula I when food is removed for 16 hours before dosing. A control group acts as a comparison to rats treated with a compound of Formula I. The control group is administered the carrier for the compound of Formula I. The volume of carrier administered to the control group is the same as the volume of carrier and compound of Formula I administered to the test group.
Inflammatory Pain: To assess the actions of the compounds of Formula I on the treatment or prevention of inflammatory pain the Freund's complete adjuvant (“FCA”) model of inflammatory pain is used. […] 24 hour post injection, the animal is assessed for response to noxious mechanical stimuli by determining the PWT, or to noxious thermal stimuli by determining the PWL, as described below. […] Responses to noxious mechanical or thermal stimuli are then determined 1, 3, 5 and 24 hours post administration. […]
Response to Mechanical Stimuli as an Assessment of Mechanical Hyperalgesia: The paw pressure assay can be used to assess mechanical hyperalgesia. For this assay, hind paw withdrawal thresholds (PWT) to a noxious mechanical stimulus are determined using an analgesymeter (Model 7200, commercially available from Ugo Basile of Italy) as described in C. […] PWT is determined once for each rat at each time point and only the affected (ipsilateral) paw is tested.
Response to Thermal Stimuli as an Assessment of Thermal Hyperalgesia: The plantar test can be used to assess thermal hyperalgesia. For this test, hind paw withdrawal latencies (PWL) to a noxious thermal stimulus are determined using a plantar test apparatus (commercially available from Ugo Basile of Italy) following the technique described by K. Hargreaves et al., “A New and Sensitive Method for Measuring Thermal Nociception in Cutaneous Hyperalgesia,” Pain 32(1):77-88 (1988). […] Three latencies are determined at each time point and averaged. […]

[2] = target: T1, human recombinant TRPV1 (Homo sapiens (Human), UniProt Q8NER1); assay: TRPV1 pH-Based Assay (Protocol 2, Ca2+ response in TRPV1/CHO cells, Fura-2); format: cell-based; settings: TRPV1/CHO cells, pH 5.0-5.1; read-out: IC50 value by the pH-Based Assay
T1 sequence (Q8NER1 whole entry): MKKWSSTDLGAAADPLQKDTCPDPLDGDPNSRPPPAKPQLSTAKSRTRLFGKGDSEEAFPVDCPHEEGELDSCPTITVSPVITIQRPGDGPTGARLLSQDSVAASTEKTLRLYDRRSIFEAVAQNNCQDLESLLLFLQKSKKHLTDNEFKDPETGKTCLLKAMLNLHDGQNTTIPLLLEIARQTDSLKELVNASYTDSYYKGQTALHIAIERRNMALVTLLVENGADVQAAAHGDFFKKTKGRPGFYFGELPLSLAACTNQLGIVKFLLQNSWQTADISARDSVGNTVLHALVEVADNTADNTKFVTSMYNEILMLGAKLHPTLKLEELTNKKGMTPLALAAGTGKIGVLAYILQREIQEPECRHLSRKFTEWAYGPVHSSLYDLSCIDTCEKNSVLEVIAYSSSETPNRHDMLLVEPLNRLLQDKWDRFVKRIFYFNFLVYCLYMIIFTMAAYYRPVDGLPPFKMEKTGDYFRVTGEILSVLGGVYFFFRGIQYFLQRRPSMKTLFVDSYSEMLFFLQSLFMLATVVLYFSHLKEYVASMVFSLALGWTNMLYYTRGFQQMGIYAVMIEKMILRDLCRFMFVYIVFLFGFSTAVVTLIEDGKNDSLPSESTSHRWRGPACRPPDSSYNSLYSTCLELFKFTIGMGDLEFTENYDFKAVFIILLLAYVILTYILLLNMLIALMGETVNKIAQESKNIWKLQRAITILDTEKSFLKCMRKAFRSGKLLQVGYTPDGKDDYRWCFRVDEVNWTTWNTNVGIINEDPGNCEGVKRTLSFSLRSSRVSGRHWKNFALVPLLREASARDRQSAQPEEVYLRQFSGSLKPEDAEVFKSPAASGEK
Procedure, shortened: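 CHO cells stably expressing human TRPV1, Fura-2 loaded, given compound (1% DMSO in 10× stock) before acid challenge to final pH 5.0-5.1 (3.2 or 3.3 mM H2SO4). 340/380 nm ratio recorded at 0.5 Hz; maximal ratio after agonist addition versus 16-point baseline used as response.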

[3] = target: T1, human recombinant TRPV1; assay: TRPV1 Capsaicin-Based Assay (Protocol 2, TRPV1/CHO cells, Fluo-4, FLIPR); format: cell-based; settings: TRPV1/CHO cells, capsaicin 100 nM final; read-out: IC50 value by the Capsaicin-Based Assay
Procedure, shortened: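 CHO cells stably expressing human TRPV1 were loaded with 3 μM Fluo-4 for 1 h, then given compounds in HBSS/1 mM CaCl2/20 mM HEPES pH 7.4 with 1% DMSO for 2 min before 100 nM capsaicin (final). FLIPR fluorescence recorded over the full course; curves fitted.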

pIC50 [2]	pIC50 [3]	Structure (SMILES)	Percentage reversal of hyperalgesia, % Reversal (3 mg/Kg, 3 hours post administration) [1] [%]
≥ 7.30		Cc1ccc2nc(NC(=O)N3CCN(c4ncc(C[C@@H](O)CO)cc4F)C[C@@H]3C)sc2c1 [AEM]	59.7
≥ 7.30	≥ 7.30	C[C@H]1CN(c2ncc(C[C@@H](O)CO)cc2C(F)(F)F)CCN1C(=O)Nc1nc2ccc(F)cc2s1 [AGU]	71
